Assay results reported in paper PMC9120017, “Inhibition mechanism of the chloride channel TMEM16A by the pore blocker 1PBC” (Nature Communications, 2022).
Converted amounts (≈) assume the structure as drawn.

Assay: Solubility of 1PBC in aqueous solution
Format: physicochemical

- solubility: ~100 µM (≈ 27.7 µg/mL)
Structure (SMILES): N#Cc1c(C(F)(F)F)cc(O)n2c1nc1ccccc12 [1PBC]
